Laboratory results taken from patent publication US12540131B2 (Merck Sharp & Dohme LLC, priority 2019, dated 2026).

Target: GST tagged truncated human mutant G2019S LRRK2 (Homo sapiens (Human), UniProt Q5S007, G2019S)
Test: LRRK2 Km ATP LanthaScreen Assay
Assay type: biochemical
Conditions: G2019S LRRK2, 134 μM ATP (Km ATP), mean values
Protocol: General Experimental Information: • Unless otherwise noted, all reactions are magnetically stirred. Unless otherwise noted, when diethyl ether is used in the experiments described below, it is Fisher ACS certified material and is stabilized with BHT. Unless otherwise noted, “concentrated” and/or “solvent removed under reduced pressure” means evaporating the solvent from a solution or mixture using a rotary evaporator or vacuum pump. Unless otherwise noted, flash chromatography is carried out on a Teledyne Isco (Lincoln, NE), Analogix (Burlington, WI), or Biotage (Stockholm, SWE) automated chromatography system using a commercially available cartridge as the column. Columns may be purchased from Teledyne Isco, Analogix, Biotage, Varian (Palo Alto, CA), or Supelco (Bellefonte, PA) and are usually filled with silica gel as the stationary phase. Reverse phase prep-HPLC conditions, where used, can be found at the end of each experimental section. Aqueous solutions were concentrated on a Genevac (Ipswich, ENG) or by freeze-drying/lyophilization. Unless otherwise noted, all LRRK2 pIC50 data presented in tables refers to the LRRK2 G2019S Km ATP LanthaScreen™ assay (Life Technologies Corp., Carlsbad, CA) that is described in the Biological Assay section.
The pIC50 values reported herein were measured as follows.
Biological Assay: LRRK2 Km ATP LanthaScreen™ Assay
Compound potency against LRRK2 kinase activity was determined using LanthaScreen™ technology from Life Technologies Corporation (Carlsbad, CA) using a GST20 tagged truncated human mutant G2019S LRRK2 in the presence of the fluorescein-labeled peptide substrate LRRKtide® (LRRK2 phosphorylated ezrin/radixin/moesin (ERM)), also from Life Technologies. The data presented for the Km ATP LanthaScreen™ Assay represents mean IC50 values based on several test results and may have reasonable deviations depending on the specific conditions and reagents used. Km is the Michaelis constant of an enzyme and is defined as the concentration of native substrate (ATP for a kinase) which permits the enzyme to achieve half Vmax (Vmax=rate of reaction when the enzyme is saturated with substrate). IC50 (half-maximal inhibitory concentration) represents the concentration of inhibitor required to inhibit LRRK2 kinase activity by 50%. Assays were performed in the presence of 134 μM ATP (Km ATP). Upon completion, the assay was stopped, and phosphorylated substrate detected with a terbium (Tb)-labeled anti-pERM antibody (cat. no. PV4898). The compound dose response was prepared by diluting a 10 mM stock of compound to a maximum concentration of 9.99 μM in 100% DMSO, followed by custom fold serial dilution in DMSO nine times. 20 nL of each dilution was spotted via a Labcyte Echo onto a 384-well black-sided plate (Corning 3575) followed by 15 μl of a 1.25 nM enzyme solution in 1× assay buffer (50 mM Tris pH 8.5, 10 mM MgCl2, 0.01% Brij-35, 1 mM EGTA, 2 mM dithiothreitol, 0.05 mM sodium orthovanadate). Following a 15-minute incubation period at RT, the kinase reaction was started with the addition of 5 μl of 400 nM fluorescein-labeled LRRKtide® (LRRK2 phosphorylated ezrin/radixin/moesin (ERM)) peptide substrate and 134 μM ATP solution in 1× assay buffer. The reaction was allowed to progress at ambient temperature for 90 minutes. The reaction was then stopped by the addition of 20 μl of TR-FRET Dilution Buffer (Life Technologies, Carlsbad, CA) containing 2 nM Tb-labeled anti-phospho LRRKtide® (LRRK2 phosphorylated ezrin/radixin/moesin (ERM)) antibody and 10 mM EDTA (Life Technologies, Carlsbad, CA). After an incubation period of 1 h at RT, the plate was read on an EnVision® multimode plate reader (Perkin Elmer, Waltham, MA) with an excitation wavelength of 337 nm (Laser) and a reading emission at both 520 and 495 nm. Compound IC50 values were interpolated from nonlinear regression best-fits of the log of the final compound concentration, plotted as a function of the 520/495-nm emission ratio using activity base “Abase”). […]

Chain of GST tagged truncated human mutant G2019S LRRK2 (Q5S007 970-2527 G2019S): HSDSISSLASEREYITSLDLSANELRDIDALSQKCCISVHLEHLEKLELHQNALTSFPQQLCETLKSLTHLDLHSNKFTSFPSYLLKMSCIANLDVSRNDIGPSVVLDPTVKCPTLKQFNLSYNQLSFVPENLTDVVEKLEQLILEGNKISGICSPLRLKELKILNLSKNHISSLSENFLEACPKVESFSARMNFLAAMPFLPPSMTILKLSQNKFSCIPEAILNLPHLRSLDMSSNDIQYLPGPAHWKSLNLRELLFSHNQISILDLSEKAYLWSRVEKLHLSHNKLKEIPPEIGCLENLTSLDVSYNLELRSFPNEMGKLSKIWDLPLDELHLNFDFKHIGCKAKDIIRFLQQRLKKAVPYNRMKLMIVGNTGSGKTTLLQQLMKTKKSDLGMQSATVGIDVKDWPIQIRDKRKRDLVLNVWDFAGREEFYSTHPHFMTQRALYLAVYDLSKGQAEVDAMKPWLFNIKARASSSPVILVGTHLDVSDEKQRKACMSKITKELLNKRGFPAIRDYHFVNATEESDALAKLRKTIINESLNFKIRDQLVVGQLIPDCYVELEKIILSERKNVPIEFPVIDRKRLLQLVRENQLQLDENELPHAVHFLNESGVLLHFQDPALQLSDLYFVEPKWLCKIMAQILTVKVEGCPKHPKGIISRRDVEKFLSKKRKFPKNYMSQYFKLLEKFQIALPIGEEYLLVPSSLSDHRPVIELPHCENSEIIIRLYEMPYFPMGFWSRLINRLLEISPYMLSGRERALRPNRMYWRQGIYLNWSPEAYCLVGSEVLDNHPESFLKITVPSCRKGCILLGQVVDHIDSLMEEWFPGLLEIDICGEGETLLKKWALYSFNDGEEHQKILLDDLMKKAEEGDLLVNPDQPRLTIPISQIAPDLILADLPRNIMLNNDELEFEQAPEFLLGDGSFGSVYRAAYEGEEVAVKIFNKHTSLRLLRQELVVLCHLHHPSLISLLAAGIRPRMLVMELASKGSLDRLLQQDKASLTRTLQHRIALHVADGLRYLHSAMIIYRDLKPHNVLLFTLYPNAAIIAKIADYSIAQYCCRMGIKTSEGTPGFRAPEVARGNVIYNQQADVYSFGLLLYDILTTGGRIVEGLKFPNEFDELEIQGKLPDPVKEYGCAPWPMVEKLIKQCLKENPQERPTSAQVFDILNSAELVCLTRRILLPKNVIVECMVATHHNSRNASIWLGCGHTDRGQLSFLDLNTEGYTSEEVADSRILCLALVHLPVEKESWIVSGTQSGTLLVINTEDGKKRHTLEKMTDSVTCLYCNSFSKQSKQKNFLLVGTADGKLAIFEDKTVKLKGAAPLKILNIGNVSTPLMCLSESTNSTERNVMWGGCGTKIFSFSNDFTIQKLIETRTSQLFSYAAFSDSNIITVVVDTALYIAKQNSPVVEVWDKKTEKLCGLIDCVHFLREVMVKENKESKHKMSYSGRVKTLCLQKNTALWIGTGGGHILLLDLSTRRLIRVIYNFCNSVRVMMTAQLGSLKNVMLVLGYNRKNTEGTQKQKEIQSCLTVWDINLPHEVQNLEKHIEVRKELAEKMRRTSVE

Structure (SMILES)	LRRK2 pIC50
Cn1nc(C2CC2)cc1Nc1ncc2cc(Cl)c(C3CCN([C@@H]4COC[C@@H]4O)CC3)cc2n1 (single isomer, unassigned) [Ex-1.23, (3S,4S) or (3R,4R) 4-(4-{6-chloro-2-[(3-cyclopropyl-1-methyl-1H-pyrazol-5-yl)amino]quinazolin-7-yl}piperidin-1-yl)oxolan-3-ol]	9.00
Cn1nc(C(F)(F)F)cc1Nc1ncc2cc(Cl)c(C3CCN([C@@H]4COC[C@@H]4O)CC3)cc2n1 (single isomer, unassigned) [Ex-1.24, (3S,4S) or (3R,4R) 4-[4-(6-chloro-2-{[1-methyl-3-(trifluoromethyl)-1H-pyrazol-5-yl]amino}quinazolin-7-yl)piperidin-1-yl]oxolan-3-ol]	8.58
Cc1cc(Nc2ncc3cc(Cl)c(C4CCN([C@]5(C)COC[C@@H]5O)CC4)cc3n2)n(C)n1 (single isomer, unassigned) [Ex-1.25, (3S,4S) or (3R,4R) 4-(4-{6-chloro-2-[(1,3-dimethyl-1H-pyrazol-5-yl)amino]quinazolin-7-yl}piperidin-1-yl)-4-methyloxolan-3-ol]	8.99
[2H]C([2H])([2H])n1ncc(Nc2ncc3cc(Cl)c(C4CCN([C@]5(C)COC[C@@H]5O)CC4)cc3n2)c1C (single isomer, unassigned) [Ex-1.26, (3S,4S) or (3R,4R)-4-(4-(6-chloro-2-((5-methyl-1-(methyl-d3)-1H-pyrazol-4-yl)amino)quinazolin-7-yl)piperidin-1-yl)-4-methyltetrahydrofuran-3-ol]	>9.20
[2H]C([2H])([2H])n1ncc(Nc2ncc3cc(Cl)c(C4CCN([C@]5(C)COC[C@@H]5O)CC4)cc3n2)c1Cl (single isomer, unassigned) [Ex-1.27, (3S,4S) or (3R,4R)-4-(4-(6-chloro-2-((5-chloro-1-(methyl-d3)-1H-pyrazol-4-yl)amino)quinazolin-7-yl)piperidin-1-yl)-4-methyltetrahydrofuran-3-ol]	>9.20
Cc1cc(Nc2ncc3cc(Cl)c(C4CCN([C@]5(C)COC[C@@H]5O)CC4)cc3n2)n(C2CC2)n1 (single isomer, unassigned) [Ex-1.28, (3S,4S) or (3R,4R) 4-(4-{6-chloro-2-[(1-cyclopropyl-3-methyl-1H-pyrazol-5-yl)amino]quinazolin-7-yl}piperidin-1-yl)-4-methyloxolan-3-ol]	9.12
CC(C)(O)Cn1ncc(Nc2ncc3cc(Cl)c([C@@H]4CCN(C5(C)COC5)C[C@H]4F)cc3n2)c1Cl (single isomer, unassigned) [Ex-2.1, (3S,4S) or (3R,4R) 1-(5-chloro-4-((6-chloro-7-(3-fluoro-1-(3-methyloxetan-3-yl)piperidin-4-yl)quinazolin-2-yl)amino)-1H-pyrazol-1-yl)-2-methylpropan-2-ol]	8.79
Cc1cc2cnc(Nc3cnn(C4CC4)c3Cl)nc2cc1C1CCN(C2COCC2O)CC1 (single isomer, unassigned) [Ex-2.4, (3S,4S) or (3R,4R)-(4-(4-(2-((5-chloro-1-cyclopropyl-1H-pyrazol-4-yl)amino)-6-methylquinazolin-7-yl)piperidin-1-yl)tetrahydrofuran-3-ol]	>9.20
CC1(Cn2ncc(Nc3ncc4cc(Cl)c([C@@H]5CCN(C6COC6)C[C@H]5F)cc4n3)c2Cl)COC1 (single isomer, unassigned) [Ex-2.11, (3S,4S) or (3R,4R) 6-chloro-N-{5-chloro-1-[(3-methyloxetan-3-yl)methyl]-1H-pyrazol-4-yl}-7-[3-fluoro-1-(oxetan-3-yl)piperidin-4-yl]quinazolin-2-amine]	9.10
CC1(Cn2ncc(Nc3ncc4cc(Cl)c([C@H]5CCN(C6COC6)C[C@@H]5F)cc4n3)c2Cl)COC1 (single isomer, unassigned) [Ex-2.12, (3S,4S) or (3R,4R) 6-chloro-N-{5-chloro-1-[(3-methyloxetan-3-yl)methyl]-1H-pyrazol-4-yl}-7-[3-fluoro-1-(oxetan-3-yl)piperidin-4-yl]quinazolin-2-amine]	>9.20

Same assay, conditions: G2019S LRRK2, 134 μM ATP (Km ATP), mean values; read-out: LRRK2 pIC50 (converted)

Structure (SMILES)	IC50
Cc1c(Nc2ncc3cc(Cl)c(C4CCN(C5CCCC5(F)F)CC4)cc3n2)cnn1C1CC1 (single isomer, unassigned) [Ex-1.21, (S) or (R) 6-chloro-N-(1-cyclopropyl-5-methyl-1H-pyrazol-4-yl)-7-[1-(2,2-difluorocyclopentyl)piperidin-4-yl]quinazolin-2-amine]	1.86 nM
Cc1c(Nc2ncc3cc(Cl)c(C4CCN(C5CCCC5(F)F)CC4)cc3n2)cnn1C1CC1 (single isomer, unassigned) [Ex-1.22, (S) or (R) 6-chloro-N-(1-cyclopropyl-5-methyl-1H-pyrazol-4-yl)-7-[1-(2,2-difluorocyclopentyl)piperidin-4-yl]quinazolin-2-amine]	7.94 nM
CC(C)(O)Cn1ncc(Nc2ncc3cc(Cl)c([C@@H]4CCN(C5(C)COC5)C[C@H]4F)cc3n2)c1Cl (single isomer, unassigned) [Ex-2.2, (3S,4S) or (3R,4R) 1-(5-chloro-4-((6-chloro-7-(3-fluoro-1-(3-methyloxetan-3-yl)piperidin-4-yl)quinazolin-2-yl)amino)-1H-pyrazol-1-yl)-2-methylpropan-2-ol]	< 0.631 nM
CC1(N2CCC(n3cc(Nc4ncc5cc(Cl)c(C6CC67CC7)cc5n4)cn3)CC2)COC1 (single isomer, unassigned) [Ex-2.5, (S) or (R) 6-chloro-N-{1-[1-(3-methyloxetan-3-yl)piperidin-4-yl]-1H-pyrazol-4-yl}-7-(spiro[2.2]pentan-1-yl)quinazolin-2-amine]	2.19 nM
CC1(N2CCC(n3cc(Nc4ncc5cc(Cl)c(C6CC67CC7)cc5n4)cn3)CC2)COC1 (single isomer, unassigned) [Ex-2.6, (S) or (R) 6-chloro-N-{1-[1-(3-methyloxetan-3-yl)piperidin-4-yl]-1H-pyrazol-4-yl}-7-(spiro[2.2]pentan-1-yl)quinazolin-2-amine]	< 0.631 nM
CC1(N2CC3(CC(n4cc(Nc5ncc6cc(Cl)c(C7CC78CC8)cc6n5)cn4)C3)C2)COC1 (single isomer, unassigned) [Ex-2.7, (S) or (R) 6-chloro-N-{1-[2-(3-methyloxetan-3-yl)-2-azaspiro[3.3]heptan-6-yl]-1H-pyrazol-4-yl}-7-(spiro[2.2]pentan-1-yl)quinazolin-2-amine]	0.813 nM
CC1(N2CC3(CC(n4cc(Nc5ncc6cc(Cl)c(C7CC78CC8)cc6n5)cn4)C3)C2)COC1 (single isomer, unassigned) [Ex-2.8, (S) or (R) 6-chloro-N-{1-[2-(3-methyloxetan-3-yl)-2-azaspiro[3.3]heptan-6-yl]-1H-pyrazol-4-yl}-7-(spiro[2.2]pentan-1-yl)quinazolin-2-amine]	1.26 nM
CC1(N2CCC(n3ncc(Nc4ncc5cc(Cl)c(C6CC67CCC7)cc5n4)c3Cl)CC2)COC1 (single isomer, unassigned) [Ex-2.9, (S) or (R) 6-chloro-N-{5-chloro-1-[1-(3-methyloxetan-3-yl)piperidin-4-yl]-1H-pyrazol-4-yl}-7-(spiro[2.3]hexan-1-yl)quinazolin-2-amine]	36.3 nM
